Structures can show the parent of a compound that is named as a salt.
Legend:
[1] = tested on: S. aureus strain ATCC 13709 (methicillin-susceptible); experiment: Murine model for lethal bacteremic peritonitis; format: in vivo, female Swiss-Webster mice; settings: Staphylococcus aureus, ATCC13709, SC, 72 h; for responders at 1.25 mg/kg: read-out: Survivors (converted); for ED50: two equal doses, IP challenge, read-out: ED50
Method in brief: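 Female Swiss-Webster mice were challenged IP with an LD100 inoculum in 7% hog gastric mucin, then given test drug subcutaneously in twofold increments (0.01–512 mg/kg) as two equal doses at challenge and 2 h later, 10 mice per group. Survival was scored at 72 h; PD50 (total mg/kg) was derived by probit.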

[2] = tested on: S. aureus Col(Meth^R)(lac^-); experiment: In vitro MIC, agar dilution; format: cell-based; settings: Staphylococcus aureus, read-out: minimum inhibitory concentration (MIC)
Method in brief: (§1)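 Two-fold dilutions (128 to ≤0.25 μg/mL, in duplicate) were poured into Mueller-Hinton agar. Log-phase broth cultures were spot-inoculated at about 10^4 cfu per spot and incubated 35-36°C for 16-20 hours; the MIC was the lowest concentration inhibiting growth. Col is a high-level PBP2a producer; Col 8A is its isogenic PBP2a-lacking partner.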

[3] = tested on: S. aureus Col8A(Meth^S)(lac^-); experiment: In vitro MIC, agar dilution; format: cell-based; settings: Staphylococcus aureus; S. aureus Col8A(Meth^S)(lac^-); read-out: minimum inhibitory concentration (MIC)
Method in brief: as §1

S. aureus ATCC 29213 = experiment: In vitro MIC, agar dilution; format: cell-based; settings: Staphylococcus aureus, ATCC29213, read-out: minimum inhibitory concentration (MIC)
Method in brief: (§2)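 Spots of about 10^4 cfu of log-phase culture were applied, and plates were incubated 16-20 h at 35-36 °C. MIC was the lowest concentration inhibiting growth.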

[4] = tested on: S. aureus Spain #356(Meth^R); experiment: In vitro MIC, agar dilution; format: cell-based; settings: Staphylococcus aureus, read-out: minimum inhibitory concentration (MIC)
Method in brief: as §2

P. aeruginosa ATCC 27853 = experiment: In vitro MIC, agar dilution; format: cell-based; settings: Pseudomonas aeruginosa, ATCC27853, read-out: minimum inhibitory concentration (MIC)
Method in brief: as §2

[5] = tested on: S. aureus ATCC 33593(Meth^R); experiment: In vitro MIC, agar dilution; format: cell-based; settings: Staphylococcus aureus, ATCC33593, read-out: minimum inhibitory concentration (MIC)
Method in brief: as §2

E. faecalis ATCC 29212 = experiment: In vitro MIC, agar dilution; format: cell-based; settings: Enterococcus faecalis, ATCC29212, read-out: minimum inhibitory concentration (MIC)
Method in brief: as §2

[6] = tested on: S. aureus 76(Meth^R)(lac^+); experiment: In vitro MIC, agar dilution; format: cell-based; settings: Staphylococcus aureus, read-out: minimum inhibitory concentration (MIC)
Method in brief: as §2

[7] = tested on: S. haemolyticus 05(Meth^R); experiment: In vitro MIC, agar dilution; format: cell-based; settings: Staphylococcus haemolyticus, read-out: minimum inhibitory concentration (MIC)
Method in brief: as §2

[8] = tested on: S. aureus PC1(Meth^S)(lac^+); experiment: In vitro MIC, agar dilution; format: cell-based; settings: Staphylococcus aureus, read-out: minimum inhibitory concentration (MIC)
Method in brief: as §2

E. faecium VanA(Van^R) = experiment: In vitro MIC, agar dilution; format: cell-based; settings: Enterococcus faecium, read-out: minimum inhibitory concentration (MIC)
Method in brief: as §2

E. faecalis VanB(Van^R) = experiment: In vitro MIC, agar dilution; format: cell-based; settings: Enterococcus faecalis, read-out: minimum inhibitory concentration (MIC)
Method in brief: as §2

E. coli ATCC 25992 = experiment: In vitro MIC, agar dilution; format: cell-based; settings: Escherichia coli, ATCC25992, read-out: minimum inhibitory concentration (MIC)
Method in brief: as §2

E. faecium A491(Amp^R) = experiment: In vitro MIC, agar dilution; format: cell-based; settings: Enterococcus faecium, read-out: minimum inhibitory concentration (MIC)
Method in brief: as §2

E. faecium ATCC 35667 = experiment: In vitro MIC, agar dilution; format: cell-based; settings: Enterococcus faecium, ATCC35667, read-out: minimum inhibitory concentration (MIC)
Method in brief: as §2

[9] = tested on: S. aureus ATCC 13709(Meth^S); experiment: In vitro MIC, agar dilution; format: cell-based; settings: Staphylococcus aureus, ATCC13709, S. aureus ATCC 13709(Meth^S); read-out: minimum inhibitory concentration (MIC)
Method in brief: as §2

Row | Compound | MIC [2] | MIC [3] | MIC (S. aureus ATCC 29213) | MIC [4] | MIC (P. aeruginosa ATCC 27853) | MIC [5] | MIC (E. faecalis ATCC 29212) | MIC [6] | MIC [7] | MIC [8] | MIC (E. faecium VanA(Van^R)) | MIC (E. faecalis VanB(Van^R)) | MIC (E. coli ATCC 25992) | MIC (E. faecium A491(Amp^R)) | MIC (E. faecium ATCC 35667) | MIC [9] | further results
1 | N=C(N)SCc1cnccc1SC1=C(C(=O)O)N2C(=O)[C@@H](NC(=O)Cc3ccccc3)[C@H]2SC1 [Cmpd 1, (7R)-7-[(phenylacetyl)amino]-3-(3-isothioureidomethylpyrid-4-ylthio)-3-cephem-4-carboxylate, trifluoroacetic acid salt] | 4 µg/mL | ≤ 0.06 µg/mL | 0.13 µg/mL | 8 µg/mL | > 32 µg/mL | 8 µg/mL | 1 µg/mL | 8 µg/mL | 16 µg/mL | 1 µg/mL | 8 µg/mL | 4 µg/mL | > 32 µg/mL | > 32 µg/mL | 2 µg/mL |  | responders at 0.156 mg/kg ([1]; Dose 0.156 mg/kg, read-out: Survivors): 20%; responders at 0.3125 mg/kg ([1]; read-out: Survivors): 50%; responders at 0.625 mg/kg ([1]; read-out: Survivors): 60%; responders at 1.25 mg/kg [1]: 80%; responders at 2.5 mg/kg ([1]; read-out: Survivors): 100%; ED50 [1]: 0.39 mg/kg
2 | N=C(N)SCc1nnsc1SC1=C(C(=O)O)N2C(=O)[C@@H](NC(=O)Cc3ccccc3)[C@H]2SC1 [Cmpd 2, (7R)-7-[(phenylacetyl)amino]-3-(4-isothioureidomethyl-1,2,3-thiadiazol-5-ylthio)-3-cephem-4-carboxylate, trifluoroacetic acid salt] | 1 µg/mL | ≤ 0.06 µg/mL | ≤ 0.06 µg/mL | 4 µg/mL | > 32 µg/mL | 4 µg/mL | 0.5 µg/mL | 4 µg/mL | 4 µg/mL | 0.5 µg/mL | 4 µg/mL | 0.5 µg/mL | 16 µg/mL | > 32 µg/mL | 1 µg/mL |  | 
3 | N=C(N)SCc1ncsc1SC1=C(C(=O)O)N2C(=O)[C@@H](NC(=O)Cc3ccccc3)[C@H]2SC1 [Cmpd 5, (7R)-7-[(phenylacetyl)amino]-3-(4-isothioureidomethylthiazol-5-ylthio)-3-cephem-4-carboxylate, trifluoroacetic acid salt] | 8 µg/mL | ≤ 0.06 µg/mL | 0.13 µg/mL | 16 µg/mL | > 32 µg/mL | 16 µg/mL | 2 µg/mL | 16 µg/mL | 16 µg/mL | 0.25 µg/mL | 32 µg/mL | 4 µg/mL | > 32 µg/mL | > 32 µg/mL | 4 µg/mL | ≤ 0.06 µg/mL | 
4 | O=C(Cc1ccccc1)N[C@@H]1C(=O)N2C(C(=O)O)=C(Sc3snnc3CSC3CCNC3)CS[C@H]12 (stereo partly drawn) [Cmpd 6, (7R)-7-[(phenylacetyl)amino]-3-[4-(3-pyrrolidinothiomethyl)-1,2,3-thiadiazol-5-ylthio]-3-cephem-4-carboxylate, trifluoroacetic acid salt] | 2 µg/mL | 0.13 µg/mL | 0.25 µg/mL | 8 µg/mL | > 32 µg/mL | 8 µg/mL | 0.5 µg/mL | 8 µg/mL | 16 µg/mL | 0.5 µg/mL | 8 µg/mL | 8 µg/mL | > 32 µg/mL | > 32 µg/mL | 2 µg/mL | ≤ 0.06 µg/mL | 
5 | N=C(N)SCc1ncsc1SC1=C(C(=O)O)N2C(=O)[C@@H](NC(=O)/C(=N\O)c3csc(N)n3)[C@H]2SC1 [Cmpd 7, (7R)-7-[(Z)-2-(aminothiazol-4-yl)-2-(hydroxyimino)acetamido]-3-(4-isothioureidomethylthiazol-5-ylthio)-3-cephem-4-carboxylate, trifluoroacetic acid salt] | 8 µg/mL | 0.5 µg/mL | 0.5 µg/mL | 8 µg/mL | > 32 µg/mL | 8 µg/mL | 1 µg/mL | 8 µg/mL | 32 µg/mL | 2 µg/mL | 16 µg/mL | 2 µg/mL | 4 µg/mL | > 32 µg/mL | 4 µg/mL | 0.5 µg/mL | 
6 | NCCS(=O)(=O)Cc1cnccc1SC1=C(C(=O)O)N2C(=O)[C@@H](NC(=O)/C(=N\O)c3nc(N)sc3Cl)[C@H]2SC1 [Cmpd 45, (7R)-7-[(Z)-2-(2-amino-5-chlorothiazol-4-yl)-2-(hydroxyimino)acetamido]-3-(3-aminoethylsulfonylmethylpyrid-4-ylthio)-3-cephem-4-carboxylate, trifluoroacetic acid salt] | 4 µg/mL | 1 µg/mL | 1 µg/mL | 4 µg/mL | > 32 µg/mL | 4 µg/mL | 0.13 µg/mL | 4 µg/mL | 8 µg/mL | 2 µg/mL | 4 µg/mL |  | 16 µg/mL | 16 µg/mL | 2 µg/mL | 2 µg/mL | 
7 | NCCCCOCc1cnccc1SC1=C(C(=O)O)N2C(=O)[C@@H](NC(=O)/C(=N\O)c3nc(N)sc3Cl)[C@H]2SC1 [Cmpd 46, (7R)-7-[(Z)-2-(2-amino-5-chlorothiazol-4-yl)-2-(hydroxyimino)acetamido]-3-(3-(4-aminobutyloxymethyl)pyrid-4-ylthio)-3-cephem-4-carboxylate, trifluoroacetic acid salt] | 2 µg/mL | 0.5 µg/mL | 1 µg/mL | 4 µg/mL | > 32 µg/mL | 2 µg/mL | 0.13 µg/mL | 4 µg/mL | 8 µg/mL | 2 µg/mL | 2 µg/mL |  | 8 µg/mL | 16 µg/mL | 2 µg/mL | 2 µg/mL | 
8 | NCCCOCc1cnccc1SC1=C(C(=O)O)N2C(=O)[C@@H](NC(=O)/C(=N\O)c3nc(N)sc3Cl)[C@H]2SC1 [Cmpd 47, (7R)-7-[(Z)-2-(2-amino-5-chlorothiazol-4-yl)-2-(hydroxyimino)acetamido]-3-(3-(3-aminopropyloxymethyl)pyrid-4-ylthio)-3-cephem-4-carboxylate, trifluoroacetic acid salt] | 2 µg/mL | 0.5 µg/mL | 1 µg/mL | 2 µg/mL | > 32 µg/mL | 2 µg/mL | 0.13 µg/mL | 2 µg/mL | 4 µg/mL | 2 µg/mL | 2 µg/mL |  | 8 µg/mL | 16 µg/mL | 2 µg/mL | 2 µg/mL | 
9 | Nc1nc(/C(=N/O)C(=O)N[C@@H]2C(=O)N3C(C(=O)O)=C(Sc4ccncc4CSC[C@H](N)CO)CS[C@H]23)c(Cl)s1 [Cmpd 65, (7R)-7-[(Z)-2-(2-amino-5-chlorothiazol-4-yl)-2-(hydroxyimino)acetamido]-3-[3-(2R-2-amino-3-hydroxyprop-1-ylthiomethyl)pyrid-4-ylthio]-3-cephem-4-carboxylate, trifluoroacetic acid salt] | 2 µg/mL | 0.5 µg/mL | 0.5 µg/mL | 4 µg/mL | > 32 µg/mL | 4 µg/mL | 0.25 µg/mL | 4 µg/mL | 4 µg/mL | 1 µg/mL | 2 µg/mL | 0.5 µg/mL | 16 µg/mL | 16 µg/mL |  | 0.5 µg/mL | responders at 0.3125 mg/kg ([1]; read-out: Survivors): 10%; responders at 0.625 mg/kg ([1]; read-out: Survivors): 20%; responders at 1.25 mg/kg [1]: 10%; responders at 2.5 mg/kg ([1]; read-out: Survivors): 30%; responders at 5 mg/kg ([1]; Dose 5 mg/kg, read-out: Survivors): 80%; ED50 [1]: 3.1 mg/kg

Reference: patent US6087355A, “Cephalosporin antibiotics” (Microcide Pharmaceuticals, Inc., priority 1996, dated 2000)
